Measurements reported in the supplement of paper PMC10307832.

Experiments:
Experiment in all cases: relative viability (nuclei count vs DMSO), 5 days (fraction); higher = more cells survive
AT9283 + Vorinostat = compound: O=C(Nc1c[nH]nc1-c1nc2ccc(CN3CCOCC3)cc2[nH]1)NC1CC1 [AT9283] + O=C(CCCCCCC(=O)Nc1ccccc1)NO [Vorinostat] (partner 1 µM)
How it was run: (§1)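 A single step with final 0.05% Triton X-100, 1% formaldehyde and 1 ug/ml Hoechst fixed the cells and stained nuclei 5 days after treatment. Lung cancer cell lines in 1536-well plates had been treated by pin tool the day after seeding with one drug alone or a fixed anchor-drug dose plus five library-drug doses (not always all listed) in √10 steps, and nuclei were counted on 4× images. Relative viability is the ratio of nuclei in treated wells to nuclei in vehicle wells, taken as the median of duplicate plates.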

AT9283 + Tozasertib = compound: O=C(Nc1c[nH]nc1-c1nc2ccc(CN3CCOCC3)cc2[nH]1)NC1CC1 [AT9283] + Cc1cc(Nc2cc(N3CCN(C)CC3)nc(Sc3ccc(NC(=O)C4CC4)cc3)n2)n[nH]1 [Tozasertib] (partner 0.1 µM)
How it was run: as §1

AT9283 + Olaparib = compound: O=C(Nc1c[nH]nc1-c1nc2ccc(CN3CCOCC3)cc2[nH]1)NC1CC1 [AT9283] + O=C(c1cc(Cc2n[nH]c(=O)c3ccccc23)ccc1F)N1CCN(C(=O)C2CC2)CC1 [Olaparib] (partner 8 µM)
How it was run: as §1

Erlotinib + AZD7762 = compound: C#Cc1cccc(Nc2ncnc3cc(OCCOC)c(OCCOC)cc23)c1 [Erlotinib] + NC(=O)Nc1cc(-c2cccc(F)c2)sc1C(=O)N[C@H]1CCCNC1 [AZD7762] (partner 0.2 µM)
How it was run: as §1

AT9283 + Pemetrexed = compound: O=C(Nc1c[nH]nc1-c1nc2ccc(CN3CCOCC3)cc2[nH]1)NC1CC1 [AT9283] + Nc1nc2[nH]cc(CCc3ccc(C(=O)N[C@@H](CCC(=O)O)C(=O)O)cc3)c2c(=O)[nH]1 [Pemetrexed] (partner 0.2 µM)
How it was run: as §1

Cell Line | relative viability (AT9283 + Vorinostat; first compound 0.003 µM) | relative viability (AT9283 + Vorinostat; first compound 0.03 µM) | relative viability (AT9283 + Vorinostat; first compound 0.09487 µM) | relative viability (AT9283 + Vorinostat; first compound 0.3 µM) | relative viability (AT9283 + Tozasertib; first compound 0.003 µM) | relative viability (AT9283 + Tozasertib; first compound 0.03 µM) | relative viability (AT9283 + Tozasertib; first compound 0.09487 µM) | relative viability (AT9283 + Tozasertib; first compound 0.3 µM) | relative viability (AT9283 + Olaparib; first compound 0.003 µM) | relative viability (AT9283 + Olaparib; first compound 0.03 µM) | relative viability (AT9283 + Olaparib; first compound 0.09487 µM) | relative viability (AT9283 + Olaparib; first compound 0.3 µM) | relative viability (Erlotinib + AZD7762; first compound 0.02 µM) | relative viability (Erlotinib + AZD7762; first compound 0.2 µM) | relative viability (Erlotinib + AZD7762; first compound 0.6325 µM) | relative viability (Erlotinib + AZD7762; first compound 2 µM) | relative viability (AT9283 + Pemetrexed; first compound 0.003 µM) | relative viability (AT9283 + Pemetrexed; first compound 0.03 µM) | relative viability (AT9283 + Pemetrexed; first compound 0.09487 µM) | relative viability (AT9283 + Pemetrexed; first compound 0.3 µM)
LCLC-97TM1 | 0.734 | 0.15 | 0.128 | 0.0905 | 0.199 | 0.123 | 0.18 | 0.181 | 0.41 | 0.233 | 0.103 | 0.0959 | 0.291 | 0.309 | 0.356 | 0.196 | 0.19 | 0.134 | 0.0995 | 0.0907
NCI-H2405 | 0.959 | 0.576 | 0.3 | 0.24 | 0.689 | 0.418 | 0.272 | 0.261 | 0.941 | 0.615 | 0.333 | 0.217 | 0.749 | 0.669 | 0.774 | 0.652 | 0.995 | 0.977 | 0.324 | 0.22
NCI-H647 | 0.466 | 0.323 | 0.126 | 0.12 | 0.307 | 0.14 | 0.117 | 0.118 | 0.555 | 0.311 | 0.0867 | 0.0596 | 0.465 | 0.439 | 0.508 | 0.431 | 0.168 | 0.127 | 0.0669 | 0.0634
NCI-H650 | 0.405 | 0.375 | 0.282 | 0.146 | 0.693 | 0.408 | 0.17 | 0.177 | 0.396 | 0.399 | 0.215 | 0.146 | 0.953 | 1.19 | 1.23 | 1.28 | 0.939 | 0.864 | 0.53 | 0.153
LU99A | 0.457 | 0.253 | 0.228 | 0.15 | 0.268 | 0.247 | 0.226 | 0.222 | 0.258 | 0.214 | 0.14 | 0.123 | 0.414 | 0.414 | 0.295 | 0.418 | 0.162 | 0.184 | 0.139 | 0.112
EKVX | 0.673 | 0.545 | 0.302 | 0.287 | 0.377 | 0.312 | 0.317 | 0.183 | 0.796 | 0.758 | 0.496 | 0.239 | 0.686 | 0.693 | 0.423 | 0.219 | 0.436 | 0.352 | 0.211 | 0.204
NCI-H1648 | 0.378 | 0.468 | 0.325 | 0.308 | 0.456 | 0.343 | 0.329 | 0.258 | 0.636 | 0.584 | 0.254 | 0.461 |  | 0.649 | 0.64 | 0.465 | 0.579 | 0.553 | 0.493 | 0.386
NCI-H2087 | 1.01 | 0.158 | 0.179 | 0.126 | 0.24 | 0.192 | 0.189 | 0.148 | 0.71 | 0.416 | 0.194 | 0.154 | 1.4 | 1.33 | 1.29 | 1.17 | 0.664 | 0.586 | 0.261 | 0.183
HCC-827 | 0.612 | 0.36 | 0.363 | 0.248 | 0.409 | 0.374 | 0.337 | 0.257 | 0.702 | 0.53 | 0.344 | 0.255 | 0.137 | 0.153 | 0.116 | 0.123 | 0.281 | 0.247 | 0.236 | 0.207
A-427 | 0.902 | 0.471 | 0.269 | 0.323 | 0.186 | 0.179 | 0.168 | 0.161 | 0.652 | 0.428 | 0.292 | 0.27 | 0.735 | 0.763 | 0.843 | 0.767 | 0.979 | 0.767 | 0.272 | 0.299
NCI-H460 | 0.856 | 0.639 | 0.158 | 0.0711 | 0.388 | 0.198 | 0.0277 | 0.0528 | 0.479 | 0.307 | 0.127 | 0.113 | 0.613 | 0.734 | 0.631 | 0.629 | 0.0566 | 0.0638 | 0.0674 | 0.0587
NCI-H1734 | 0.757 | 0.305 | 0.259 | 0.237 | 0.255 | 0.249 | 0.233 | 0.186 | 0.643 | 0.414 | 0.293 | 0.259 | 0.579 | 0.513 | 0.607 | 0.507 | 0.384 | 0.404 | 0.326 | 0.228
NCI-H1993 | 0.806 | 0.435 | 0.375 | 0.363 | 0.6 | 0.571 | 0.611 | 0.491 | 1.07 | 1 | 0.552 | 0.391 | 0.732 | 0.555 | 0.566 | 0.535 | 0.565 | 0.514 | 0.52 | 0.389
